Results as given in patent US20230043407A1, “ELECTROSTATICALLY GATED NANOFLUIDIC MEMBRANES FOR CONTROL OF MOLECULAR TRANSPORT” (THE METHODIST HOSPITAL SYSTEM, priority 2020, published 2023).

Test: In vitro release rate modulation across electrostatically gated nanofluidic membrane
Details: active phases, gate voltage −1.5 V, vs passive phases (0 V); sink 0.01×PBS
Method: Release modulation experiments were performed with a custom made, two reservoirs fixture comprising of a macro cuvette (sink reservoir) and a drug reservoir. The cuvette was glued with UV epoxy (OG116, Epoxy Technologies, Inc.) to a PMMA (McMaster Carr, Douglasville, Ga.) membrane holder. The drug reservoir (500 μL capacity), made of PMMA, was secured to the membrane holder through 2 SS316L M3 screws. The membrane under testing was clamped between the two PMMA pieces, with 2 O-rings (2418T113, McMaster Carr, Douglasville, Ga.) to avoid solution leakage. The reservoir was capped with a silicone plugs (9277K87, McMaster Carr, Douglasville, Ga.).
Release modulation experiments were performed using 300 nm membranes with both poly-Si and SiC deposition. […]
The assembled diffusion fixtures were then loaded in a robotic carousel^20, which is connected to a Cary 50 UV-vis spectrophotometer (Agilent Technologies). Absorbance measurements of the sink reservoir were automatically performed every 5 minutes. […]
Graphs were plotted and statistical data analyses were performed with GraphPad Prism 8 (version 8.1.1; GraphPad Software, Inc., La Jolla, Calif.). […] Statistical significance was determined using paired t-tests. […]

Alexa Fluor 647 [AF647]
reduction of release rate: 60%
